pIC50: −log10 of the molar value. Where two headings read alike, the source gives them in different places.
Assays:
[1] = biological target: T1, human JAK3 (Homo sapiens, UniProt P52333); assay: JAK3 inhibition assay; format: biochemical; conditions: recombinant human JAK3 catalytic domain; polyGT substrate
T1 construct: catalytic domain (amino acids 781-1124; catalog number PV3855); purchased Invitrogen PV3855
Procedure, shortened: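 Radiometric kinase assay: 0.5 ng JAK3 with 2.5 μg polyGT in Tris pH 7.5/MgCl2 buffer, 1 μM ATP plus 0.25 μCi 33P-γ-ATP, 1% DMSO, 45 min at 30 °C, stopped with phosphoric acid.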

[2] = biological target: T2, human JAK1 (Homo sapiens, UniProt P23458); assay: JAK1 inhibition assay (polyGT substrate / Ulight-JAK1 peptide); format: biochemical; conditions: recombinant human JAK1 catalytic domain; polyGT or Ulight-JAK1 peptide assay
T2 construct: catalytic domain, amino acids 866-1154; catalog number PV4774; purchased Invitrogen PV4774
Procedure, shortened: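 Signal scaled between vehicle and 10 μM staurosporine. Radiometric polyGT reactions ran 45 min at 30 °C, counted after phosphoric-acid stop. Ulight peptide reactions ran 60 min at room temperature, fluorescence read after adding Eu-PT66 detection mix with EDTA.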

[3] = biological target: T3, human TYK2 (Homo sapiens, UniProt P29597); assay: TYK2 inhibition assay; format: biochemical; conditions: recombinant human TYK2 catalytic domain, polyGT substrate
T3 construct: catalytic domain (amino acids 871-1187; catalog number 08-147); purchased Carna Biosciences 08-147
T3 sequence (P29597 871-1187): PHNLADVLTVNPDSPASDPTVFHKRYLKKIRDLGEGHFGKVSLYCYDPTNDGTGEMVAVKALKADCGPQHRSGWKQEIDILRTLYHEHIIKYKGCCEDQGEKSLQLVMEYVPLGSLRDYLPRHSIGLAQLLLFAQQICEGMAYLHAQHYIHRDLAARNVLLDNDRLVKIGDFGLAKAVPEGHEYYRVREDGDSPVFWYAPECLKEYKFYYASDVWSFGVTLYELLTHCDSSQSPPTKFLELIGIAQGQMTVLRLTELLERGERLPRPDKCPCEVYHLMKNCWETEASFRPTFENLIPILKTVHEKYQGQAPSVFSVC
Procedure, shortened: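 Radiometric kinase reaction run 90 min at 30 °C, stopped with phosphoric acid, washed and scintillation-counted.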

[4] = tested on: pSTAT1(2)-luciferase reporter in HeLa cells triggered with human OSM; assay: JAK-STAT signalling assay; format: cell-based; conditions: read-out: JAK-STAT IC50
Experimental: JAK-STAT Signalling Assay
HeLa cells were maintained in Dulbecco's Modified Eagle's Medium (DMEM) containing 10% heat inactivated fetal calf serum, 100 U/mL penicillin and 100 μg/mL streptomycin. HeLa cells were used at 70% confluence for transfection. 20,000 cells in 87 μL cell culture medium were transiently transfected with 40 ng pSTAT1(2)-luciferase reporter (Panomics), 8 ng of LacZ reporter as internal control reporter and 52 ng of pBSK using 0.32 μL Jet-PEI (Polyplus) as transfection reagent per well in 96-well plate format. After overnight incubation at 37° C., 5% CO2, transfection medium was removed. 81 μL of DMEM+1.5% heat inactivated fetal calf serum was added. 9 μL compound at 10× concentration was added for 60 min and then 10 μL of human OSM (Peprotech) at 33 ng/mL final concentration.
After overnight incubation at 37° C., 5% CO2 cells were lysed by adding 100 μL lysis buffer/well (PBS, 0.9 mM CaCl2, 0.5 mM MgCl2, 10% Trehalose, 0.05% Tergitol NP9, 0.3% BSA).
40 μL of cell lysate was used to read β-galactosidase activity by adding 180 μL β-Gal solution (30 μL ONPG 4 mg/mL+150 μL β-Galactosidase buffer (0.06 M Na2HPO4, 0.04 M NaH2PO4, 1 mM MgCl2)) for 20 min.
Luciferase activity was measured using 40 μL cell lysate plus 40 μL of Steadylite as described by the manufacturer (Perkin Elmer), on the Envision (Perkin Elmer).
The positive and negative controls were used to calculate z′ and ‘percent inhibition’ (PIN) values.
Percentage inhibition=((fluorescence determined in the presence of vehicle−fluorescence determined for sample with test compound present)divided by(fluorescence determined in the presence of vehicle−fluorescence determined for sample without trigger))*100.
PIN values were plotted for compounds tested in dose-response and EC50 values were derived.

[5] = Homo sapiens, HeLa, HeLa cells, pSTAT1(2)-luciferase reporter, human OSM 33 ng/mL
[6] = HeLa cells, pSTAT1(2)-luciferase reporter, human OSM 33 ng/mL

T2 sequence (P23458 866-1154): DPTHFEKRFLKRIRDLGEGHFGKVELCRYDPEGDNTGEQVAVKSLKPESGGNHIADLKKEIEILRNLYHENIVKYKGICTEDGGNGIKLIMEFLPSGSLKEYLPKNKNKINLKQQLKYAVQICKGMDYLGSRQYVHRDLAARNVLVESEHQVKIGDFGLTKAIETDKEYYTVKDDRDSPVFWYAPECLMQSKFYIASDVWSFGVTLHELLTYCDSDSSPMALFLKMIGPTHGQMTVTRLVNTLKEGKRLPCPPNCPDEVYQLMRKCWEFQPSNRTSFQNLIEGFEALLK
T1 sequence (P52333 781-1124): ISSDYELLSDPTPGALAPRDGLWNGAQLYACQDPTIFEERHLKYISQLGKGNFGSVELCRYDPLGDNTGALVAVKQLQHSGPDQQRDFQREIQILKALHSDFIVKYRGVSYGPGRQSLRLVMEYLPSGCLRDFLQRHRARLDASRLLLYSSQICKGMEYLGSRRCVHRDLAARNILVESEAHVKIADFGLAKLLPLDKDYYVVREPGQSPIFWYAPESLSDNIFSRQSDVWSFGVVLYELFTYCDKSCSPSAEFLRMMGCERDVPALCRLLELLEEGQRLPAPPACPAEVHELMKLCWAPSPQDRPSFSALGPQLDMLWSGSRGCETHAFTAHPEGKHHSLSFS

CCc1cc(C2=CCN(C(=O)CCC#N)CC2)ccc1N(C)c1cc2c(cn1)ncn2C [Compound 196, 4-(4-(3-ethyl-4-(methyl(1-methyl-1H-imidazo[4,5-c]pyridin-6-yl)amino)phenyl)-5,6-dihydropyridin-1(2H)-yl)-4-oxobutanenitrile]
pIC50 [1]: 6.30 to 7.00 | pIC50 [2]: 7.00 to 11.00 | pIC50 [3]: 7.00 to 11.00 | pIC50 [4, 5]: 6.00 to 6.30

CCc1cc(-c2cnn(CC3(C)COC3)c2)ccc1N(C)c1cc2c(cn1)ncn2C [Compound 242, N-(2-ethyl-4-(1-((3-methyloxetan-3-yl)methyl)-1H-pyrazol-4-yl)phenyl)-N,1-dimethyl-1H-imidazo[4,5-c]pyridin-6-amine]
pIC50 [1]: 6.00 to 6.30 | pIC50 [2]: 7.00 to 11.00 | pIC50 [3]: 6.30 to 7.00 | pIC50 [4, 6]: < 6.00

CCc1cc(C2=CCN(C(=O)Nc3nncs3)CC2)ccc1N(C)c1cc2c(cn1)ncn2C [Compound 234, 4-(3-Ethyl-4-(methyl(1-methyl-1H-imidazo[4,5-c]pyridin-6-yl)amino)phenyl)-N-(1,3,4-thiadiazol-5-yl)-5,6-dihydropyridine-1(2H)-carboxamide]
pIC50 [1]: 7.00 to 11.00 | pIC50 [2]: 7.00 to 11.00 | pIC50 [3]: 7.00 to 11.00 | pIC50 ([4]; Homo sapiens, HeLa): 6.30 to 9.00

CCc1cc(-c2cnn(Cc3ccccc3)c2)ccc1N(C)c1cc2c(cn1)ncn2C [Compound 139, N-(4-(1-benzyl-1H-pyrazol-4-yl)-2-ethylphenyl)-N,1-dimethyl-1H-imidazo[4,5-c]pyridin-6-amine]
pIC50 [1]: 6.30 to 7.00 | pIC50 [2]: 7.00 to 11.00 | pIC50 [3]: 7.00 to 11.00 | pIC50 [4, 5]: 6.00 to 6.30

CCc1cc(C2=CCN(C(=O)N(C)CC)CC2)ccc1N(C)c1cc2c(cn1)ncn2C [Compound 206, N-ethyl-4-(3-ethyl-4-(methyl(1-methyl-1H-imidazo[4,5-c]pyridin-6-yl)amino)phenyl)-N-methyl-5,6-dihydropyridine-1(2H)-carboxamide]
pIC50 [1]: 6.30 to 7.00 | pIC50 [2]: 7.00 to 11.00 | pIC50 [3]: 7.00 to 11.00 | pIC50 [4, 5]: < 6.00

CCc1cc(-c2cnc(OCC#N)nc2)ccc1N(C)c1cc2c(cn1)ncn2C [Compound 217, 2-(5-(3-ethyl-4-(methyl(1-methyl-1H-imidazo[4,5-c]pyridin-6-yl)amino)phenyl)pyrimidin-2-yloxy)acetonitrile]
pIC50 [1]: < 6.00 | pIC50 [2]: 7.00 to 11.00 | pIC50 [3]: 6.30 to 7.00 | pIC50 [4, 5]: < 6.00

CCN(c1cc2c(cn1)ncn2C)c1ccc(C#N)cc1F [Compound 266, 4-(ethyl(1-methyl-1H-imidazo[4,5-c]pyridin-6-yl)amino)-3-fluorobenzonitrile]
pIC50 [1]: < 6.00 | pIC50 [2]: < 6.00 | pIC50 [3]: < 6.00 | pIC50 [4, 5]: < 6.00

COC(=O)NCc1ccc(N(C)c2cc3c(cn2)ncn3C)c(F)c1 [Compound 283, {3-Fluoro-4-[methyl-(1-methyl-1H-imidazo[4,5-c]pyridin-6-yl)-amino]-benzyl}-carbamic acid methyl ester]
pIC50 [1]: < 6.00 | pIC50 [2]: 7.00 to 11.00 | pIC50 [3]: 6.30 to 7.00 | pIC50 [4, 5]: < 6.00

CCc1cc(-c2cccc(C#N)c2)ccc1N(C)c1cc2c(cn1)ncn2C [Compound 163, 3′-ethyl-4′-(methyl(1-methyl-1H-imidazo[4,5-c]pyridin-6-yl)amino)biphenyl-3-carbonitrile]
pIC50 [1]: 6.00 to 6.30 | pIC50 [2]: 7.00 to 11.00 | pIC50 [3]: 6.00 to 6.30 | pIC50 [4, 5]: 6.00 to 6.30

COc1cc(-c2cnn(C)c2)ncc1N(C)c1cc2c(cn1)ncn2C [Compound 263, N-(4-methoxy-6-(1-methyl-1H-pyrazol-4-yl)pyridin-3-yl)-N,1-dimethyl-1H-imidazo[4,5-c]pyridin-6-amine]
pIC50 [1]: < 6.00 | pIC50 [2]: 6.00 to 6.30 | pIC50 [3]: < 6.00 | pIC50 [4, 6]: < 6.00

COc1cc(C2CCN(S(C)(=O)=O)CC2)ncc1N(C)c1cc2c(cn1)ncn2C [Compound 276]
pIC50 [1]: < 6.00 | pIC50 [2]: 7.00 to 11.00 | pIC50 [3]: < 6.00 | pIC50 [4, 6]: < 6.00

CCc1cc(C2=CCN(C(=O)N(C)CC#N)CC2)ccc1N(C)c1cc2c(cn1)ncn2C [Compound 207, N-(Cyanomethyl)-4-(3-ethyl-4-(methyl(1-methyl-1H-imidazo[4,5-c]pyridin-6-yl)amino)phenyl)-N-methyl-5,6-dihydropyridine-1(2H)-carboxamide]
pIC50 [1]: 6.30 to 7.00 | pIC50 [2]: 7.00 to 11.00 | pIC50 [3]: 7.00 to 11.00 | pIC50 ([4]; Homo sapiens, HeLa): 6.00 to 6.30

CCc1cc(C2=CCN(S(=O)(=O)C(C)C)CC2)ccc1N(C)c1cc2c(cn1)ncn2C [Compound 246, N-(2-ethyl-4-(1-(isopropylsulfonyl)-1,2,3,6-tetrahydropyridin-4-yl)phenyl)-N,1-dimethyl-1H-imidazo[4,5-c]pyridin-6-amine]
pIC50 [1]: 7.00 to 11.00 | pIC50 [2]: 7.00 to 11.00 | pIC50 [3]: 7.00 to 11.00 | pIC50 [4, 5]: 6.30 to 9.00

CCc1cc(-c2cnn(CC#N)c2)ccc1N(C)c1cc2c(cn1)ncn2C [Compound 209, 2-(4-(3-ethyl-4-(methyl(1-methyl-1H-imidazo[4,5-c]pyridin-6-yl)amino)phenyl)-1H-pyrazol-1-yl)acetonitrile]
pIC50 [1]: 6.30 to 7.00 | pIC50 [2]: 7.00 to 11.00 | pIC50 [3]: 6.30 to 7.00 | pIC50 [4, 5]: 6.00 to 6.30

CCc1cc(-c2cnc(NC)nc2)ccc1N(C)c1cc2c(cn1)ncn2C [Compound 211, N-(2-Ethyl-4-(2-(methylamino)pyrimidin-5-yl)phenyl)-N,1-dimethyl-1H-imidazo[4,5-d]pyridin-6-amine]
pIC50 [1]: 6.00 to 6.30 | pIC50 [2]: 7.00 to 11.00 | pIC50 [3]: 7.00 to 11.00 | pIC50 [4, 5]: 6.00 to 6.30

CCc1cc(C2=CCN(C(=O)Nc3ncns3)CC2)ccc1N(C)c1cc2c(cn1)ncn2C [Compound 257, 4-(3-Ethyl-4-(methyl(1-methyl-1H-imidazo[4,5-c]pyridin-6-yl)amino)phenyl)-N-(1,2,4-thiadiazol-5-yl)-5,6-dihydropyridine-1(2H)-carboxamide]
pIC50 [1]: 7.00 to 11.00 | pIC50 [2]: 7.00 to 11.00 | pIC50 [3]: 7.00 to 11.00 | pIC50 [4, 5]: 6.30 to 9.00

CCc1cc(-c2noc(COC)n2)ccc1N(C)c1cc2c(cn1)ncn2C [Compound 157, N-(2-ethyl-4-(5-(methoxymethyl)-1,2,4-oxadiazol-3-yl)phenyl)-N,1-dimethyl-1H-imidazo[4,5-c]pyridin-6-amine]
pIC50 [1]: < 6.00 | pIC50 [2]: 7.00 to 11.00 | pIC50 [3]: 7.00 to 11.00 | pIC50 [4, 5]: < 6.00

CCc1cc(C2=CCN(C(=O)NC#N)CC2)ccc1N(C)c1cc2c(cn1)ncn2C [Compound 203, N-cyano-4-(3-ethyl-4-(methyl(1-methyl-1H-imidazo[4,5-c]pyridin-6-yl)amino)phenyl)-5,6-dihydropyridine-1(2H)-carboxamide]
pIC50 [1]: 7.00 to 11.00 | pIC50 [2]: 7.00 to 11.00 | pIC50 [3]: 7.00 to 11.00 | pIC50 [4, 5]: < 6.00

CCc1cc(C2=CCN(C(=O)NC3(C)CC3)CC2)ccc1N(C)c1cc2c(cn1)ncn2C [Compound 202, 4-(3-ethyl-4-(methyl(1-methyl-1H-imidazo[4,5-c]pyridin-6-yl)amino)phenyl)-N-(1-methylcyclopropyl)-5,6-dihydropyridine-1(2H)-carboxamide]
pIC50 [1]: 6.30 to 7.00 | pIC50 [2]: 7.00 to 11.00 | pIC50 [3]: 7.00 to 11.00 | pIC50 [4, 5]: 6.30 to 9.00

CCc1cc(-c2noc(CCC#N)n2)ccc1N(C)c1cc2c(cn1)ncn2C [Compound 156, 3-(3-(3-Ethyl-4-(methyl(1-methyl-1H-imidazo[4,5-c]pyridin-6-yl)amino)phenyl)-1,2,4-oxadiazol-5-yl)propanenitrile]
pIC50 [1]: < 6.00 | pIC50 [2]: 7.00 to 11.00 | pIC50 [3]: 7.00 to 11.00 | pIC50 [4, 5]: 6.00 to 6.30

From patent US20130217664A1, “NOVEL COMPOUNDS USEFUL FOR THE TREATMENT OF DEGENERATIVE AND INFLAMMATORY DISEASES” (priority 2012, published 2013)
